Assay results published in US8415272B2, “Quinoline derivatives and their use as fungicides” (Syngenta Crop Protection LLC, priority 2008, dated 2013).

Assays:
Plasmopara viticola = experiment: Leaf disk assay, Plasmopara viticola (downy mildew of grapevine), preventive; assay type: in vivo; conditions: foliar, 168 h, grapevine leaf disks, assessed seven days after inoculation, read-out: control of fungal infection, Plasmopara viticola
Phytophthora infestans = experiment: whole plant or invertebrate; assay type: in vivo; conditions: in Solanum lycopersicum, foliar, 96 h, read-out: control of fungal infection, Phytophthora infestans
[1] = test system: Erysiphe graminis f.sp. tritici; experiment: Leaf disk assay, Erysiphe graminis f.sp. tritici (wheat powdery mildew), preventive; assay type: in vivo; conditions: Blumeria graminis, foliar, 96 h, wheat leaf segments, assessed four days after inoculation, read-out: control of fungal infection, Erysiphe graminis f.sp. tritici
Method: The compounds were tested in a leaf disk assay, with methods described below. The test compounds were dissolved in DMSO and diluted into water to 200 ppm. In the case of the test on Pythium ultimum, they were dissolved in DMSO and diluted into water to 20 […] graminis f.sp. tritici (wheat powdery mildew): Wheat leaf segments were placed on agar in a 24-well plate and sprayed with a solution of the test compound. After allowing to dry completely, for between 12 and 24 hours, the leaf disks were inoculated with a spore suspension of the fungus. After appropriate incubation the activity of a compound was assessed four days after inoculation as preventive fungicidal activity.

Septoria tritici = experiment: Growth inhibition in nutrient broth, Septoria tritici (leaf blotch), photometric; assay type: cell-based; conditions: Zymoseptoria tritici, PDB broth, 24 C, 72 hrs, read-out: control of fungal infection, Septoria tritici
Pythium ultimum = experiment: Growth inhibition in potato dextrose broth, Pythium ultimum (damping off), photometric; assay type: cell-based; conditions: Globisporangium ultimum, 24° C., 48 hours, read-out: control of fungal infection, Pythium ultimum
Method: The compounds were tested in a leaf disk assay, with methods described below. The test compounds were dissolved in DMSO and diluted into water to 200 ppm. In the case of the test on Pythium ultimum, they were dissolved in DMSO and diluted into water to 20 ppm. Pythium ultimum (Damping off): Mycelial fragments of the fungus, prepared from a fresh liquid culture, were mixed into potato dextrose broth. A solution of the test compound in dimethyl sulphoxide was diluted with water to 20 ppm then placed into a 96-well microtiter plate and the nutrient broth containing the fungal spores was added. The test plate was incubated at 24° C. and the inhibition of growth was determined photometrically after 48 hours.

Septoria nodorum = experiment: Leaf disk assay, Septoria nodorum (wheat glume blotch), preventive; assay type: in vivo; conditions: Parastagonospora nodorum, foliar, 96 h, wheat leaf segments, assessed four days after inoculation, read-out: control of fungal infection, Septoria nodorum

SMILES | pest or weed control at 200 ppm (Plasmopara viticola) [%] | pest or weed control at 200 ppm (Phytophthora infestans) [%] | pest or weed control at 200 ppm [1] [%] | inhibition of growth at 60 ppm (Septoria tritici) [%] | inhibition of growth at 20 ppm (Pythium ultimum) [%] | pest or weed control at 200 ppm (Septoria nodorum) [%]
COCC(C)(C#N)NC(=O)C(Oc1cc2cc(C#C[Si](C)(C)C)cnc2cc1F)SC (centres unmarked) [Example 5] | ≥ 60 | ≥ 60 | ≥ 60 | ≥ 60 |  | 
COCC(C)(C#N)NC(=O)C(Oc1cc(C)c2ncc(C#CCO)cc2c1)SC (centres unmarked) [Example 27] | ≥ 60 |  | ≥ 60 |  | ≥ 60 | 
COCC#Cc1cnc2c(C)cc(OC(SC)C(=O)NC(C)(C)C)cc2c1 (centres unmarked) [Example 32] |  |  |  | ≥ 60 |  | 
COCC#Cc1cnc2c(C)cc(OC(SC)C(=O)NC(C)(C#N)COC)cc2c1 (centres unmarked) [Example 33] |  | ≥ 60 |  | ≥ 60 | ≥ 60 | 
CC#CC(C)(C)NC(=O)C(Oc1cc(C)c2ncc(C#CCOC)cc2c1)SC (centres unmarked) [Example 35] | ≥ 60 |  |  | ≥ 60 |  | 
C#CC(C)(C)NC(=O)C(Oc1cc(C)c2ncc(C#CCOC)cc2c1)SC (centres unmarked) [Example 36] |  |  |  | ≥ 60 | ≥ 60 | 
CC#Cc1cnc2c(C)cc(OC(SC)C(=O)NC(C)(C)C)cc2c1 (centres unmarked) [Example 37] |  |  |  | ≥ 60 |  | 
CC#Cc1cnc2c(C)cc(OC(SC)C(=O)NC(C)(C#N)COC)cc2c1 (centres unmarked) [Example 38] |  |  | ≥ 60 | ≥ 60 | ≥ 60 | 
CC#Cc1cnc2c(C)cc(OC(SC)C(=O)NC(C)(C)C#CCOC)cc2c1 (centres unmarked) [Example 39] | ≥ 60 | ≥ 60 |  | ≥ 60 |  | 
CC#Cc1cnc2c(C)cc(OC(SC)C(=O)NC(C)(C)C#CC)cc2c1 (centres unmarked) [Example 40] |  |  |  | ≥ 60 |  | 
C#CC(C)(C)NC(=O)C(Oc1cc(C)c2ncc(C#CC)cc2c1)SC (centres unmarked) [Example 41] |  |  |  | ≥ 60 |  | 
COCC#Cc1cnc2ccc(OC(SC)C(=O)NC(C)(C#N)COC)cc2c1 (centres unmarked) [Example 43] |  | ≥ 60 | ≥ 60 |  | ≥ 60 | 
C#CC(C)(C)NC(=O)C(Oc1ccc2ncc(C#CCOC)cc2c1)SC (centres unmarked) [Example 46] |  | ≥ 60 | ≥ 60 | ≥ 60 | ≥ 60 | 
CC#CC(C)(C)NC(=O)C(Oc1ccc2ncc(C#CCO)cc2c1)SC (centres unmarked) [Example 50] | ≥ 60 | ≥ 60 |  |  | ≥ 60 | 
C#CC(C)(C)NC(=O)C(Oc1ccc2ncc(C#CCO)cc2c1)SC (centres unmarked) [Example 51] | ≥ 60 | ≥ 60 |  |  | ≥ 60 | 
COCC(C)(C#N)NC(=O)C(Oc1ccc2ncc(C#CCO)cc2c1)SC (centres unmarked) [Example 52] |  | ≥ 60 |  |  | ≥ 60 | 
COCC#CC(C)(C)NC(=O)C(Oc1cc2cc(C#C[Si](C)(C)C)cnc2cc1F)SC (centres unmarked) [Example 58] |  |  | ≥ 60 | ≥ 60 |  | 
CSCC(C)(C#N)NC(=O)C(Oc1ccc2ncc(C#C[Si](C)(C)C)cc2c1)SC (centres unmarked) [Example 59] |  | ≥ 60 |  | ≥ 60 |  | 
COCOCC(C)(C)NC(=O)C(Oc1cc(C)c2ncc(C#C[Si](C)(C)C)cc2c1)SC (centres unmarked) [Example 60] |  |  |  | ≥ 60 |  | 
COCCC(C)(C)NC(=O)C(Oc1ccc2ncc(C#C[Si](C)(C)C)cc2c1)SC (centres unmarked) [Example 78] | ≥ 60 | ≥ 60 | ≥ 60 | ≥ 60 |  | ≥ 60

SMILES | pest or weed control at 200 ppm (Plasmopara viticola) [%] | pest or weed control at 200 ppm (Phytophthora infestans) [%] | pest or weed control at 200 ppm [1] [%] | inhibition of growth at 60 ppm (Septoria tritici) [%] | inhibition of growth at 20 ppm (Pythium ultimum) [%] | pest or weed control at 200 ppm (Septoria nodorum) [%]
COC(Oc1ccc2ncc(C#C[Si](C)(C)C)cc2c1)C(=O)NC(C)(C)C (centres unmarked) [Example 80] | ≥ 60 | ≥ 60 | ≥ 60 | ≥ 60 |  | 
COCC(C)(COC)NC(=O)C(Oc1ccc2ncc(C#C[Si](C)(C)C)cc2c1)SC (centres unmarked) [Example 81] |  | ≥ 60 |  | ≥ 60 |  | ≥ 60
CCOCC(C)(C)NC(=O)C(Oc1cc(C)c2ncc(C#C[Si](C)(C)C)cc2c1)SC (centres unmarked) [Example 89] |  |  |  | ≥ 60 |  | 
CCC(C)(C)NC(=O)C(Oc1ccc2ncc(C#C[Si](C)(C)C)cc2c1)SC (centres unmarked) [Example 91] | ≥ 60 |  | ≥ 60 | ≥ 60 |  | 
C#Cc1cnc2ccc(OC(SC)C(=O)NC(C)(C#N)CF)cc2c1 (centres unmarked) [Example 92] |  |  |  |  | ≥ 60 | 
COCCC#CC(C)(C)NC(=O)C(Oc1ccc2ncc(C#C[Si](C)(C)C)cc2c1)SC (centres unmarked) [Example 100] | ≥ 60 | ≥ 60 | ≥ 60 | ≥ 60 | ≥ 60 | 
CSC(Oc1cc2cc(C#C[Si](C)(C)C)cnc2cc1F)C(=O)NC(C)(C)C (centres unmarked) [Example 101] |  |  |  | ≥ 60 |  | 
CCC#CC(C)(C)NC(=O)C(Oc1ccc2ncc(C#C[Si](C)(C)C)cc2c1)SC (centres unmarked) [Example 116] | ≥ 60 | ≥ 60 | ≥ 60 | ≥ 60 |  | 
CCC#CC(C)(C)NC(=O)C(Oc1cc(Cl)c2ncc(C#C[Si](C)(C)C)cc2c1)SC (centres unmarked) [Example 119] | ≥ 60 |  |  | ≥ 60 |  | 
CSC(Oc1cc(Cl)c2ncc(C#C[Si](C)(C)C)cc2c1)C(=O)NC(C)(C)C#CCCCCl (centres unmarked) [Example 120] |  |  |  | ≥ 60 |  | 
C#Cc1cnc2ccc(OC(SC)C(=O)NC3(C=O)CCC3)cc2c1 (centres unmarked) [Example 150] | ≥ 60 | ≥ 60 | ≥ 60 |  |  | ≥ 60
C#Cc1cnc2ccc(OC(SC)C(=O)N(C)C3(CO)CCC3)cc2c1 (centres unmarked) [Example 154] |  |  |  |  | ≥ 60 | 
C#Cc1cnc2ccc(OC(SC)C(=O)NC(C)(C#C)C=O)cc2c1 (centres unmarked) [Example 161] | ≥ 60 | ≥ 60 |  |  | ≥ 60 | 
C#Cc1cnc2c(F)c(F)c(OC(SC)C(=O)NC(C)(C#N)COC)cc2c1 (centres unmarked) [Example 216] | ≥ 60 |  | ≥ 60 | ≥ 60 |  | 
CSC(Oc1cc2cc(C#C[Si](C)(C)C)cnc2c(F)c1F)C(=O)NC(C)(C)C (centres unmarked) [Example 217] |  |  |  | ≥ 60 |  | 
C#Cc1cnc2ccc(OC(OC)C(=O)NC(C)(C)CO)cc2c1 (centres unmarked) [Example 220] | ≥ 60 | ≥ 60 | ≥ 60 | ≥ 60 | ≥ 60 | 
C#Cc1cnc2ccc(OC(OC)C(=O)NC(C)(C)C=O)cc2c1 (centres unmarked) [Example 221] | ≥ 60 | ≥ 60 | ≥ 60 | ≥ 60 | ≥ 60 | 
C#Cc1cnc2ccc(OC(SC)C(=O)NC3(C)CSC3)cc2c1 (centres unmarked) [Example 224] |  |  |  | ≥ 60 | ≥ 60 | 
COCC#CC(C)(C)NC(=O)C(Oc1cc(Cl)c2ncc(C#CCF)cc2c1)SC (centres unmarked) [Example 227] | ≥ 60 | ≥ 60 | ≥ 60 |  |  | 
